In patent publication US20140242178A1, “TASTE-MASKED FORMULATIONS OF RALTEGRAVIR” (priority 2011, published 2014):

Experiments:
[1] = cited from earlier work
[2] = IMPAACT P1066: safety in HIV-1 infected pediatric patients; format: in vivo, human
Source text: Raltegravir has been studied in 126 antiretroviral treatment-experienced HIV-1 infected pediatric patients 2 through 18 years of age, in combination with other antiretroviral agents in IMPAACT P1066. Of the 126 patients, 96 received only the final recommended dose through at least 24 weeks.

[3] = laboratory abnormality, pediatric patients

SMILES	solubility in acetonitrile ([1]; acetonitrile)	solubility in ethanol ([1]; ethanol)	solubility in isopropanol ([1]; isopropanol)	solubility in methanol ([1]; methanol)	solubility in water ([1]; water)	ALT increased, Grade 3 [2, 3] [%]	AST increased, Grade 3 [2, 3] [%]	AST increased, Grade 4 [2, 3] [%]	GGT increased, Grade 3 [2, 3] [%]	bilirubin increased, Grade 3 [2, 3] [%]	creatinine increased, Grade 3 [2, 3] [%]	glucose abnormal, Grade 3 [2, 3] [%]	glucose decreased, Grade 3 [2, 3] [%]	magnesium decreased, Grade 3 [2, 3] [%]	neutrophil count decreased, Grade 4 [2, 3] [%]	neutrophil count decreased, Grade 3 ([2]; laboratory abnormality, pediatric patients 2 through 18 years) [%]	Grade 3 or higher adverse reactions (psychomotor hyperactivity, abnormal behavior, insomnia) ([2]; pediatric patients)	frequency, type and severity of drug related adverse reactions ([2]; pediatric patients)	serious Grade 2 possibly drug related allergic rash ([2]; pediatric patients)
Cc1nnc(C(=O)NC(C)(C)c2nc(C(=O)NCc3ccc(F)cc3)c([O-])c(=O)n2C)o1.[K+] [Raltegravir potassium, N-[(4-Fluorophenyl)methyl]-1,6-dihydro-5-hydroxy-1-methyl-2-[1-methyl-1-[[(5-methyl-1,3,4-oxadiazol-2-yl)carbonyl]amino]ethyl]-6-oxo-4-pyrimidinecarboxamide monopotassium salt]	very slightly soluble	very slightly soluble	insoluble	slightly soluble	soluble	–	–	–	–	–	–	–	–	–	–	–	–	–	–
Cc1nnc(C(=O)NC(C)(C)c2nc(C(=O)NCc3ccc(F)cc3)c(O)c(=O)n2C)o1 [Raltegravir]	–	–	–	–	–	1.1	1.1	1.1	1.1	1.1	1.1	1.1	1.1	1.1	1.1	7.4	one patient	comparable to those observed in adults	one
